These results are taken from patent publication US12528802B2, “Heterocyclic compound” (Takeda Pharmaceutical Company Limited, priority 2019, dated 2026).

For one test, the target named is T1, glucosylceramide synthase (Homo sapiens, UniProt Q16739).
T1 construct: made in house; host or cells: Expi293F cells (transient expression, pcDNA3.3-TOPO vector); microsome fraction used as enzyme source
T1 sequence (Q16739 1-394): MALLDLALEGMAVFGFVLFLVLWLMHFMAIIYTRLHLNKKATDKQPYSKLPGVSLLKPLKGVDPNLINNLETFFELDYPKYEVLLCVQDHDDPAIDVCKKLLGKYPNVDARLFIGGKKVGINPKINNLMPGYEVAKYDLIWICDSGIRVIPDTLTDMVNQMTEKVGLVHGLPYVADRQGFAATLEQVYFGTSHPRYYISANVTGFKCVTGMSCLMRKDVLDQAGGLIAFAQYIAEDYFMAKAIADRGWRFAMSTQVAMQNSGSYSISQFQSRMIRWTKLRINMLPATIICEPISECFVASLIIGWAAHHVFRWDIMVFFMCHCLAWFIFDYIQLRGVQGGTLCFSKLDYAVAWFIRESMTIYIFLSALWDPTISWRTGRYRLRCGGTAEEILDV
The experiment in a line: Glucosylceramide synthase (GCS) enzyme assay, microsome fraction, C8 glucosylceramide quantified by Rapidfire MS/MS. It is filed as biochemical. The conditions noted are these: test compound 10 μM; 1.7 μM UDP-glucose, 3 μM C8 ceramide; room temperature 60 min. Put shortly:
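Test compound, 10 μM final, was run against human GCS from transfected Expi293F microsome fractions, using substrate solution of 6 μM C8 ceramide (in DOPC liposomes) plus 3.4 μM UDP-glucose, pH 7.5 Tris buffer, 60 min, room temperature. Product C8 glucosylceramide measured by Rapidfire MS/MS against an internal standard, % inhibition referenced to no-enzyme and DMSO wells.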
As to `Cc1cncc(OCC(F)(F)F)c1-c1nccc2c1CN(c1ccc(OC(F)F)cc1)C2=O` [Example 198, 2-[4-(difluoromethoxy)phenyl]-4-[3-methyl-5-(2,2,2-trifluoroethoxy)pyridin-4-yl]-2,3-dihydro-1H-pyrrolo[3,4-c]pyridin-1-one], the “GCS enzyme inhibitory rate at 10 μM (%) (% of control)” value was determined as 99%.

The same test, now with this note: test compound 10 μM; 1.7 μM UDP-glucose, 3 μM C8 ceramide; room temperature 60 min; read-out: GCS enzyme inhibitory rate at 10 μM (%) (% of control).
Regarding `O=C(c1ccc(N2Cc3c(ccnc3-c3ccc(F)cc3OCC(F)(F)F)C2=O)cc1)N1CC(F)(F)C1` [Example 181, 2-[4-(3,3-difluoroazetidine-1-carbonyl)phenyl]-4-[4-fluoro-2-(2,2,2-trifluoroethoxy)phenyl]-2,3-dihydro-1H-pyrrolo[3,4-c]pyridin-1-one], the inhibition at 10 µM is 89%.
Same read-out and setting: under `O=C(c1ccc(N2Cc3c(ccnc3-c3ccc(F)cc3OCC(F)(F)F)C2=O)cc1)N1CCC(F)(F)CC1` [Example 182, 2-[4-(4,4-difluoropiperidine-1-carbonyl)phenyl]-4-[4-fluoro-2-(2,2,2-trifluoroethoxy)phenyl]-2,3-dihydro-1H-pyrrolo[3,4-c]pyridin-1-one] stands 99%; under `COc1ccccc1-n1ncc2c1CN(c1ccc(F)cc1)C2` [Example 183, 5-(4-fluorophenyl)-1-(2-methoxyphenyl)-1,4,5,6-tetrahydropyrrolo[3,4-c]pyrazole], 83%.
Still for that read-out and setting: under `CC(C)(O)c1ccc(N2Cc3c(ccnc3-c3ccccc3OCC(F)(F)F)C2=O)cn1` [Example 184, 2-[6-(2-hydroxypropan-2-yl)pyridin-3-yl]-4-[2-(2,2,2-trifluoroethoxy)phenyl]-2,3-dihydro-1H-pyrrolo[3,4-c]pyridin-1-one] stands 96%.
Consider `O=C1c2ncnc(-c3ccc(F)cc3OCC(F)(F)F)c2CN1c1ccc(F)cc1` [Example 185, 6-(4-fluorophenyl)-4-[4-fluoro-2-(2,2,2-trifluoroethoxy)phenyl]-5,6-dihydro-7H-pyrrolo[3,4-d]pyrimidin-7-one], for which the inhibition at 10 µM worked out at 71%.
As for `O=C1c2ccnc(-c3ccccc3OCC(F)(F)F)c2CN1c1ccc(O[C@@H]2CCOC2)cc1` [Example 187, 2-(4-{[(3R)-oxolan-3-yl]oxy}phenyl)-4-[2-(2,2,2-trifluoroethoxy)phenyl]-2,3-dihydro-1H-pyrrolo[3,4-c]pyridin-1-one], the inhibition at 10 µM came out at 100%.
Same read-out and setting: under `O=C1c2ccnc(-c3ccccc3OCC(F)(F)F)c2CN1c1ccc(O[C@H]2CCOC2)cc1` [Example 188, 2-(4-{[(3S)-oxolan-3-yl]oxy}phenyl)-4-[2-(2,2,2-trifluoroethoxy)phenyl]-2,3-dihydro-1H-pyrrolo[3,4-c]pyridin-1-one] stands 100%; under `CCC(=O)c1ccc(N2Cc3c(ccnc3-c3ccc(F)cc3OCC(F)(F)F)C2=O)cc1` [Example 189, 4-[4-fluoro-2-(2,2,2-trifluoroethoxy)phenyl]-2-(4-propanoylphenyl)-2,3-dihydro-1H-pyrrolo[3,4-c]pyridin-1-one], 94%.
The same measure, in the same setting: under `CCC(=O)c1ccc(N2Cc3c(ccnc3-c3ccccc3OCC(F)(F)F)C2=O)cc1` [Example 190, 2-(4-propanoylphenyl)-4-[2-(2,2,2-trifluoroethoxy)phenyl]-2,3-dihydro-1H-pyrrolo[3,4-c]pyridin-1-one] stands 98%; under `O=C1c2ccnc(-c3ccccc3OCC(F)(F)F)c2CN1c1ccc(C2(O)CCC2)cc1` [Example 191, 2-[4-(1-hydroxycyclobutyl)phenyl]-4-[2-(2,2,2-trifluoroethoxy)phenyl]-2,3-dihydro-1H-pyrrolo[3,4-c]pyridin-1-one], 100%.
Same read-out and setting: under `CC(C)(O)c1ccc(N2Cc3c(ncnc3-c3ccc(F)cc3OCC(F)(F)F)C2=O)cc1` [Example 192, 4-[4-fluoro-2-(2,2,2-trifluoroethoxy)phenyl]-6-[4-(2-hydroxypropan-2-yl)phenyl]-5,6-dihydro-7H-pyrrolo[3,4-d]pyrimidin-7-one] stands 88%.
As to `Fc1ccc(N2Cc3cnn(-c4ccccc4OCC(F)(F)F)c3C2)cc1` [Example 193, 5-(4-fluorophenyl)-1-[2-(2,2,2-trifluoroethoxy)phenyl]-1,4,5,6-tetrahydropyrrolo[3,4-c]pyrazole], the inhibition at 10 µM is 98%.
As to `O=C1c2ccnc(-c3ccc(F)cc3OCC(F)(F)F)c2CN1c1ccc(OCC2(F)COC2)cc1` [Example 194, 2-{4-[(3-fluorooxetan-3-yl)methoxy]phenyl}-4-[4-fluoro-2-(2,2,2-trifluoroethoxy)phenyl]-2,3-dihydro-1H-pyrrolo[3,4-c]pyridin-1-one], the inhibition at 10 µM stood at 98%.
With `CC(C)(O)COc1ccc(N2Cc3c(ccnc3-c3ccccc3OCC(F)(F)F)C2=O)cc1` [Example 195, 2-[4-(2-hydroxy-2-methylpropoxy)phenyl]-4-[2-(2,2,2-trifluoroethoxy)phenyl]-2,3-dihydro-1H-pyrrolo[3,4-c]pyridin-1-one], the inhibition at 10 µM amounted to 100%.
Same read-out and setting: under `Cn1cc2c(c(-c3ccc(F)cc3OCC(F)(F)F)c1=O)CN(c1ccc(OC(F)F)cc1)C2=O` [Example 196, 2-[4-(difluoromethoxy)phenyl]-7-[4-fluoro-2-(2,2,2-trifluoroethoxy)phenyl]-5-methyl-1H-pyrrolo[3,4-c]pyridine-3,6(2H,5H)-dione] stands 100%; under `CC(C)(O)c1ccc(N2Cc3c(ccnc3-c3ccc(F)cc3OCC(F)(F)F)C2=O)cn1` [Example 197, 4-[4-fluoro-2-(2,2,2-trifluoroethoxy)phenyl]-2-[6-(2-hydroxypropan-2-yl)pyridin-3-yl]-2,3-dihydro-1H-pyrrolo[3,4-c]pyridin-1-one], 88%.
On the same count and under the same terms, under `O=C1c2ccnc(-c3ccc(F)cc3OCC(F)(F)F)c2CN1c1ccc(C2(O)COC2)cn1` [Example 199, 4-[4-fluoro-2-(2,2,2-trifluoroethoxy)phenyl]-2-[5-(3-hydroxyoxetan-3-yl)pyridin-2-yl]-2,3-dihydro-1H-pyrrolo[3,4-c]pyridin-1-one] stands 91%; under `CC(C)(O)c1ccc(N2Cc3c(ncnc3-c3ccccc3OCC(F)(F)F)C2=O)cc1` [Example 200, 6-[4-(2-hydroxypropan-2-yl)phenyl]-4-[2-(2,2,2-trifluoroethoxy)phenyl]-5,6-dihydro-7H-pyrrolo[3,4-d]pyrimidin-7-one], 95%; under `Cc1cccc(OCC(F)(F)F)c1-c1nccc2c1CN(c1ccc(S(=O)(=O)C(F)F)cc1)C2=O` [Example 201, 2-[4-(difluoromethanesulfonyl)phenyl]-4-[2-methyl-6-(2,2,2-trifluoroethoxy)phenyl]-2,3-dihydro-1H-pyrrolo[3,4-c]pyridin-1-one], 99%.
On to `O=C1c2ccnc(-c3ccc(F)cc3OCC(F)(F)F)c2CN1c1cnn(CC2(F)COC2)c1` [Example 202, 2-{1-[(3-fluorooxetan-3-yl)methyl]-1H-pyrazol-4-yl}-4-[4-fluoro-2-(2,2,2-trifluoroethoxy)phenyl]-2,3-dihydro-1H-pyrrolo[3,4-c]pyridin-1-one], for which the inhibition at 10 µM was found to be 95%.
On the same count and under the same terms, under `O=C1c2ccnc(-c3ccccc3OCC(F)(F)F)c2CN1c1ccc(C2(O)CCC2)nc1` [Example 203, 2-[6-(1-hydroxycyclobutyl)pyridin-3-yl]-4-[2-(2,2,2-trifluoroethoxy)phenyl]-2,3-dihydro-1H-pyrrolo[3,4-c]pyridin-1-one] stands 98%; under `CC1(Oc2ccc(N3Cc4c(ccnc4-c4ccccc4OCC(F)(F)F)C3=O)cn2)COC1` [Example 204, 2-{6-[(3-methyloxetan-3-yl)oxy]pyridin-3-yl}-4-[2-(2,2,2-trifluoroethoxy)phenyl]-2,3-dihydro-1H-pyrrolo[3,4-c]pyridin-1-one], 97%; under `Cn1nc(-c2ccccc2OCC(F)(F)F)c2c1CN(c1ccc(F)cc1)C2` [Example 205, 5-(4-fluorophenyl)-1-methyl-3-[2-(2,2,2-trifluoroethoxy)phenyl]-1,4,5,6-tetrahydropyrrolo[3,4-c]pyrazole], 83%.
The same measure, in the same setting: under `Cn1nc2c(c1-c1ccccc1OCC(F)(F)F)CN(c1ccc(F)cc1)C2` [Example 206, 5-(4-fluorophenyl)-2-methyl-3-[2-(2,2,2-trifluoroethoxy)phenyl]-2,4,5,6-tetrahydropyrrolo[3,4-c]pyrazole] stands 66%.
Turning to `CS(=O)(=O)c1ccc(N2Cc3cnn(-c4ccccc4OCC(F)(F)F)c3C2)cc1` [Example 207, 5-[4-(methanesulfonyl)phenyl]-1-[2-(2,2,2-trifluoroethoxy)phenyl]-1,4,5,6-tetrahydropyrrolo[3,4-c]pyrazole], the inhibition at 10 µM amounted to 99%.
Regarding `O=C1c2ccnc(-c3ccc(F)cc3OCC(F)(F)F)c2CN1c1ccc(C2(O)CCOCC2)cc1` [Example 208, 4-[4-fluoro-2-(2,2,2-trifluoroethoxy)phenyl]-2-[4-(4-hydroxyoxatan-4-yl)phenyl]-2,3-dihydro-1H-pyrrolo[3,4-c]pyridin-1-one], the inhibition at 10 µM stood at 99%.
